Data: PMC8959600 (eLife, 2022)

Tests used:
in vivo = settings: pig, po, 50 mg/kg
Protocol: Blood was collected from the jugular veins while manually restraining the piglets. […] Blood samples were centrifuged at 2,200 x g for 10 min at 4 °C. Plasma was extracted and stored at –80 °C. Pharmacokinetic analysis was performed as above described.

E. coli = test: MIC by micro dilution, clinical E. coli isolates from Vietnam; format: cell-based; settings: Escherichia coli; seven E. coli from diarrhoeal cases in Vietnam; read-out: median MIC
Description: (§1) Selected compounds, including Tebipenem, were profiled against a panel of […] clinical isolates of enteric pathogens comprised of Shigella (Vietnam and Kenya; n = 135), non-typhoidal Salmonella (Vietnam; n = 117), Campylobacter (Vietnam; n = 75), and various pathogenic E. coli species (Vietnam; n = 7) ([Butcher et al., 2014]). The antimicrobial susceptibility profile of these organisms is described in Supplementary file 1.
(§2) Compound screening and dose response assays have been described previously ([Van Voorhis et al., 2016]; [Wiegand et al., 2008]). Briefly, the selected bacteria were cultured on the Luria-Bertani agar overnight at 37 °C (Campylobacter isolates were grown in 2.5% Laked Horse Blood cation-adjusted Mueller Hinton medium (CAMHB, Sigma Aldrich) and incubated in microaerophilic conditions (10% CO2, 5% O2 and 85% N2) at 42 °C); colonies were added to sterile PBS to form 0.5 McFarland solutions. […] The activity of the chemical was recorded as being active (yes) or non-active (no) for each of the tested chemicals. A non-active result was recorded when there was no evidence of bacterial inhibition, and the culture area was indistinguishable from the negative control.
(§3) MICs were evaluated using the micro dilution assay in Müller Hinton broth using 1 mM chemical stock solutions, and a final concentration of 5 × 10^5 CFU/mL bacteria. […]

E. coli (EcDH5a) = test: Checkerboard synergy assay (FIC), laboratory isolate; format: cell-based, Escherichia coli
Protocol: (§4) Before initiating drug combination assays, the MIC values for both compounds were determined against Shigella (Sf2457T), Salmonella (St14028), and E. coli (EcDH5a) isolates. […] 20 μM moxifloxacin was used as negative control (100% bacterial growth inhibition) in one column and DMSO as positive control (100% bacterial growth). A total of 25 µl of 1 × 10^6 CFU/mL bacterial culture was added to each well of a 384-well plate (μClear; Greiner Bio‐One). Plates were incubated overnight at 37 °C. Next, 10 µl of resazurin were added and plates were incubated at room temperature for 3 hr. Bacterial growth inhibition was measured by fluorescence in a Envision plate reader (PerkinElmer). All assays were performed in duplicate. Combination studies with clinical isolates were performed in 96-well plates (Greiner) adding 200 μl of 1 × 10^6 CFU/mL bacterial culture and following the same checkboard titration method as described above. The range of final working concentrations of each antimicrobial was adjusted based on the MIC of each selected organism.
(§5) MICs were determined for drug A and drug B alone and in combination. […] The sum of FIC was expressed using the following equation: FIC = (MIC of drug A in combination / MIC of drug A alone) + (MIC of drug B in combination / MIC of drug B alone) ([Le Minh et al., 2015]; [Petersen et al., 2006]; [Hall et al., 1983]; [European Committee for Antimicrobial Susceptibility Testing (EUCAST) of the European Society of Clinical Microbiology and Infectious Dieases (ESCMID), 2000]).

[1] = Intestinal distribution by quantitative LC-MS in mice; format: in vivo; settings: for peak drug concentration: mice, oral 50 mg/kg Tebipenem pivoxil
Protocol: One animal was euthanised at 0.25, 0.5, 1, and 4 hr respectively and 2.5–3 cm sections of the intestine (duodenum, jejunum, ileum, caecum, and colon) were collected and frozen at –80 °C. For quantitative LCMS analysis of intestine homogenate, samples were thawed at ambient temperature, mixed with water (1:1) and homogenised by turrax (10 sec). Subsequently, 20 µL of homogenate were mixed with 200 µl of ACN: MeOH (80:20) and filtered using 0.2 µm filter plate (Whatman). LCMS analysis was performed as described in previous section. For MALDI imaging, 50 mm of the central part of each intestinal section were cut and mounted in a sample disc on dry ice with a solution of 1% methylcellulose (Sigma Aldrich, UK). Next, tissue sections of 12 µm (sagital sections) were obtained using a cryostat (Leica CM3600; Leica Microsystems Inc, Wetzlar, Germany) at –20 °C and collected in conductive-coated slides for MALDI Imaging (Bruker Daltonic). After the ‘MALDI’ section was obtained a consecutive section for histology was taken. Prior to matrix coating, samples for MALDI were optical scanned in a PathScanner. The matrix deposition was conducted in a sprayer ImagePrep System (Bruker Daltonic) which uses vibrational vaporisation technology. As matrix solution α-CHCA (α-Cyano-4-hydroxycinnamic acid (Sigma Aldrich) dissolved in 70:30 methanol/water (v/v) containing 0.2% TFA at 7 mg/mL was used. MALDI MSI data were obtained using a Bruker UltrafleXtream MALDI TOF/TOF (Bruker Daltonic, Germany)).

[2] = mice, Tebipenem PO 39 mg/kg, n = 3
Campylobacter jejuni = test: MIC by micro dilution, clinical Campylobacter isolates from Vietnam; format: cell-based; settings: 75 Campylobacter jejuni from diarrhoeal cases in Vietnam; read-out: median MIC
Description: as §1, §2, §3

Salmonella = test: MIC by micro dilution, clinical Salmonella isolates from Vietnam; format: cell-based; settings: 117 Salmonella from diarrhoeal cases in Vietnam; read-out: median MIC
Description: as §1, §2, §3

Salmonella (St14028) = test: Checkerboard synergy assay (FIC), laboratory isolate; format: cell-based, S. Typhimurium
Protocol: as §4, §5

[3] = tested on: clinical isolates of Shigella; test: MIC by micro dilution, clinical Shigella isolates from Vietnam and Kenya; format: cell-based, Shigella spp.; settings: all clinical isolates of Shigella (82 Vietnam, 53 Kenya)
Description: as §1, §2, §3

[4] = in combination with LpxC inhibitor PF-5081090
[5] = in combination with azithromycin
[6] = in combination with ceftriaxone
[7] = in combination with ciprofloxacin
[8] = female, C57, mouse, duodenum and jejunum, po, 50 mg/kg, read-out: concentration in tissue

C[C@@H](O)[C@H]1C(=O)N2C(C(=O)O)=C(SC3CN(C4=NCCS4)C3)[C@H](C)[C@H]12 [Tebipenem]
AUC(0-t) (in vivo): 32 µg·h/mL
concentration at 6 hr (in vivo): 1 µg/mL
MIC (E. coli): < 0.1 µM
interaction (FIC index) (E. coli (EcDH5a); [4]): partial synergy
reduction of the MIC against Tebipenem (E. coli (EcDH5a); [4]): > 10 fold
interaction (FIC index) (E. coli (EcDH5a); [5]): indifference or antagonism
interaction (FIC index) (E. coli (EcDH5a); [6]): indifference or partial synergy
interaction (FIC index) (E. coli (EcDH5a); [7]): indifference or partial synergy
interaction (FIC index) (E. coli (EcDH5a); in combination with mecillinam): indifference or partial synergy
concentration at 15 min [1, 8]: > 300000 ng/g
concentration at 240 min [1, 8]: > 400 ng/g
peak drug concentration ([1]; caecum, after 60 min): 11 µg/g tissue
peak drug concentration ([1]; colon, after 60 min): 6 µg/g tissue
peak drug concentration ([1]; ileum, after 30 min): 15 µg/g tissue
bioavailability [2]: 4 ± 1%
MIC (Campylobacter jejuni): < 0.1 µM
MIC (Salmonella): < 0.1 µM
interaction (FIC index) (Salmonella (St14028); [4]): partial synergy
reduction of the MIC against Tebipenem (Salmonella (St14028); [4]): > 10 fold
interaction (FIC index) (Salmonella (St14028); [5]): partial synergy
interaction (FIC index) (Salmonella (St14028); [6]): indifference or partial synergy
interaction (FIC index) (Salmonella (St14028); [7]): indifference or partial synergy
interaction (FIC index) (Salmonella (St14028); in combination with mecillinam): indifference or partial synergy
MIC values, range [3]: 0.04 to 0.3 µM
